Article PMC4807864 (The Journal of antibiotics, 2013)
Where a name gives a salt, the structure may show the parent alone.

Key:
[1] = target: Sfp (Bacillus subtilis, UniProt P39135); assay: SDS-PAGE fluorescent carrier protein labeling follow-up; type: biochemical, B. subtilis; conditions: gel analysis (Figure S22)
[2] = target: T1, human PPTase (hPPTase) (Homo sapiens, UniProt Q9NRN7); assay: Fluorescence polarization phosphopantetheinylation assay; type: biochemical
T1 sequence (Q9NRN7 1-309): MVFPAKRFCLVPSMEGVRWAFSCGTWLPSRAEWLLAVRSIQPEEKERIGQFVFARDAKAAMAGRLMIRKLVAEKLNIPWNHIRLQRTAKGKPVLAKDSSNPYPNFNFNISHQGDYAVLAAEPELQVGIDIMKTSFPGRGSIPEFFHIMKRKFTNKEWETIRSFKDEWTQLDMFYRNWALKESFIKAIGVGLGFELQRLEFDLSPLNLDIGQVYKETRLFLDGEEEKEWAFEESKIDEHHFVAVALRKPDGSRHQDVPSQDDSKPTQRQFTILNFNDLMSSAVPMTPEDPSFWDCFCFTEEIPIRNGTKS

Sequence of Sfp (P39135 whole entry): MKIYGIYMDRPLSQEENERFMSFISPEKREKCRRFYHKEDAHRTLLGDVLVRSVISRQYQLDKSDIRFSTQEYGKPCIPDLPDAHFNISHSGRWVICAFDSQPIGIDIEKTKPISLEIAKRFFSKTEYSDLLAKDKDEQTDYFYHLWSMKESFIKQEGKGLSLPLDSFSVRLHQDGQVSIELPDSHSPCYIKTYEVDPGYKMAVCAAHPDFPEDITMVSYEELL

## NC(N)=Nc1ccc2[nH]c3c(c2c1)C[C@@]1(O)[C@H]2Cc4ccc(O)c5c4[C@@]1(CCN2CC1CC1)[C@H]3O5.O=C(O)C(F)(F)F.O=C(O)C(F)(F)F [guanidinyl-naltrindole]
[1]
  Effect on fluorescent labeling of the carrier protein substrate by SDS-PAGE: increase fluorescent labeling

## C[n+]1cc2c3c(ccc2c2ccc4cc5c(cc4c21)OCO5)OCO3 [sanguinarine Cl, sanguinarine]
[2]
  IC50: > 100 µM
[1]
  Effect on fluorescent labeling of the carrier protein substrate by SDS-PAGE: inhibitory behavior

## CC(C)(C)c1ccc(S(=O)(=O)/C=C/C#N)cc1 [Bay 11-7085]
[1]
  Effect on fluorescent labeling of the carrier protein substrate by SDS-PAGE: increase fluorescent labeling

## NC(CO)C(=O)NNCc1ccc(O)c(O)c1O (stereo not drawn) [benserazide HCl, benserazide]
[2]
  IC50: > 100 µM

## CC(C)(COP(=O)(O)OP(=O)(O)OC[C@H]1O[C@@H](n2cnc3c(N)ncnc32)[C@H](O)[C@@H]1OP(=O)(O)O)[C@@H](O)C(=O)NCCC(=O)NCCS [coenzyme A]
[2]
  IC50: 14 ± 1 µM
